In patent US20050153932A1, “Controlled muscle relaxation” (priority 2003, published 2005):
Like-named read-outs stand apart in the source and are kept apart here.

Legend:
[1] = Org 25969 with pancuronium; cited from earlier work
[2] = Org 25969 with vecuronium; cited from earlier work
[3] = tested on: M. adductor pollicis contractions; assay: Vecuronium-induced block of M. adductor pollicis contractions (TOF stimulation) and effect of Org 25969 in anaesthetised Rhesus monkeys; type: in vivo, Rhesus monkey
Method: • T1: first twitch: amplitude of the first response to TOF stimulation, expressed as percentage of control T1 (%). • T4/T1 ratio: the ratio of T4 over T1 (within one TOF stimulus) expressed as decimals.
Female Rhesus monkeys were starved overnight and sedated with 10 mg·kg^−1 ketamine i.m., followed by i.v. injection of 25 mg·kg^−1 pentobarbitone sodium and subsequent infusion of 5-10 mg·kg^−1hr^−1. The animals were intubated and ventilated with a mixture of oxygen and nitrous oxide (2:3), using a ventilator. The expired CO2 level was measured using a capnograph. The tidal volume was adjusted to obtain a CO2 level of approximately 4.5%. Oxygen saturation was measured via a probe on the earlobe using a pulse oxymeter. Blood pressure was measured non-invasively with a cuff placed on the tail. The ECG was recorded and heart rate was measured. Rectal temperature was measured and body temperature was kept at 37-38° C. using a heating blanket. The right hand and right arm of the animal were fixed to a frame using surgical tape. The thumb was connected to a force transducer. A pre-load of 200-500 mN was applied. Two needle electrode were placed near the N. ulnaris and the nerve was stimulated with train-of-four pulses (pulse duration: 2 ms, train-frequency: 0.07 Hz). At the end of the experiment, the animals were allowed to recover from anesthesia. Appropriate recovery care was given to all animals. Two groups of monkeys were used to assess the reversal effects of Org 25969 against the neuromuscular blocking agents rocuronium (Esmeron®/Zemuron®) and vecuronium (Norcuron®). In the first group, animals initially received an intravenous bolus injection of a 1×ED90 dose of rocuronium bromide to induce neuromuscular block, followed by spontaneous recovery of the twitches. After complete recovery of the twitches, each group received a second and larger 5×ED90 dose of rocuronium followed by spontaneous recovery in one subgroup, whereas the other subgroup received an intravenous bolus dose of 1150 nmol·kg^−1 Org 25969 as soon as all twitches had disappeared. In the vecuronium groups of animals, the same protocol was used, but rocuronium was replaced by vecuronium. Rocuronium bromide and vecuronium bromide were dissolved in a citric acid/phosphate/mannitol buffer (pH 4.0). Org 25969 was dissolved in saline.

[4] = Org 25969 with rapacuronium; compared with rocuronium (about 15.10^6 M^−1); cited from earlier work
[5] = tested on: neuromuscular block in a patient; settings: cited from earlier work; for Time to >80% block: value (range)
[6] = 5× ED90 vecuronium + 1150 nmol · kg^−1 Org 25969 i.v.
[7] = 5× ED90 vecuronium in the subgroup given 1150 nmol · kg^−1 Org 25969 once all twitches had disappeared
[8] = rocuronium 0.45 mg.kg−1, n = 50
[9] = rocuronium 0.6 mg.kg−1, n = 142

O=C(O)CCSC[C@H]1O[C@@H]2O[C@H]3[C@H](O)[C@@H](O)[C@@H](O[C@H]4[C@H](O)[C@@H](O)[C@@H](O[C@H]5[C@H](O)[C@@H](O)[C@@H](O[C@H]6[C@H](O)[C@@H](O)[C@@H](O[C@H]7[C@H](O)[C@@H](O)[C@@H](O[C@H]8[C@H](O)[C@@H](O)[C@@H](O[C@H]9[C@H](O)[C@@H](O)[C@@H](O[C@H]1[C@H](O)[C@H]2O)O[C@@H]9CSCCC(=O)O)O[C@@H]8CSCCC(=O)O)O[C@@H]7CSCCC(=O)O)O[C@@H]6CSCCC(=O)O)O[C@@H]5CSCCC(=O)O)O[C@@H]4CSCCC(=O)O)O[C@@H]3CSCCC(=O)O [Org 25969, 6-per-deoxy-6-per-(2-carboxyethyl)thio-γ-cyclodextrin]
affinity (association constant) [1]: about 2.6.10^6 M^−1 | affinity (association constant) [2]: about 9.10^6 M^−1 | effect on recovery from vecuronium-induced block (in words) ([3]; 1150 nmol·kg^−1 Org 25969 i.v. after 5×ED90 vecuronium): initial improvement of the time to 25% and 50% recovery values, but the recovery slowed down | 0.50-0.90 TOF ratio interval [3, 6]: 24.2 ± 3.9 min | 25-75% recovery index [3, 6]: 16.1 ± 3.7 min | time to 25% recovery of T1 [3, 6]: 9.7 ± 1.9 min | time to 90% recovery of T1 [3, 6]: 35.8 ± 7.1 min | time to TOF ratio 0.90 [3, 6]: 48.6 ± 8.3 min | block [3, 7]: 100.0 ± 0.0% | onset time [3, 7]: 1.0 ± 0.2 min | affinity (association constant) [4]: about the same

C=CC[N+]1([C@H]2C[C@H]3[C@@H]4CC[C@H]5C[C@H](O)[C@@H](N6CCOCC6)C[C@]5(C)[C@H]4CC[C@]3(C)[C@H]2OC(C)=O)CCCC1 [rocuronium, rocuronium bromide]
ED95 ([5]; neuromuscular block, clinical use): 0.30 mg/kg | Clinical duration (time until return to 25% of control T1) [5, 8]: 22 min | Time to maximum block [5, 8]: 3.0 min | Time to >80% block [5, 8]: 1.3 (0.8-6.2) min | Clinical duration (time until return to 25% of control T1) [5, 9]: 31 min | Time to maximum block [5, 9]: 1.8 min | Time to >80% block [5, 9]: 1.0 (0.4-6.0) min | Clinical duration (time until return to 25% of control T1) ([5]; rocuronium 0.9 mg.kg−1, n = 20): 58 min | Time to maximum block ([5]; rocuronium 0.9 mg.kg−1, n = 20): 1.4 min | Time to >80% block ([5]; rocuronium 0.9 mg.kg−1, n = 20): 1.1 (0.3-3.8) min | Clinical duration (time until return to 25% of control T1) ([5]; rocuronium 1.2 mg.kg−1, n = 18): 67 min | Time to maximum block ([5]; rocuronium 1.2 mg.kg−1, n = 18): 1.0 min | Time to >80% block ([5]; rocuronium 1.2 mg.kg−1, n = 18): 0.7 (0.4-1.7) min
